This experiment has as its system BMDC primary cells. Briefly: Luc mRNA LNP transfection on BMDC primary cells (Embodiment 13, Table 3). Conditions: 16 h, ONE-Glo Luciferase. Format: cell-based, C57BL/6 mice. As to the method: Preparation method: the same as that described in Embodiment 7.
Animal preparation: 6-week-old female C57BL/6 mice with the body weight about 20 g were selected. The feeding environment was an SPF stage feeding room. Animal tests were strictly performed according to the guide of the national health institute and the animal ethics requirements.
Cell acquisition: C57BL/6 mice were killed through cervical dislocation, and were soaked for 5 min in 75% ethyl alcohol. Dissection was performed to obtain thigh and calf tibiae of the mice. Attached muscles were removed to expose sclerotin. Then, bone marrow in tibiae was blown out by using a 1 mL injector sucked with PBS. After the bone marrow was blown away, impurities were filtered away by a 50 μm filter screen. A red blood cell lysis buffer (3-4 mL) was added into an obtained filtrate. Then, after placement for 5 min, 800 g centrifugation was performed for 5 min to remove the supernatant. The obtained cells were placed into a 1640 culture medium (containing 10% fetal calf serum, 20 ng/mL GMCSF and 10 ng/ml IL4) to be resuspended, and were inoculated into a 6-well plate at an inoculation density of 100000 cells/ml culture medium. The materials were placed into a 37° C. cell incubator containing 5% CO2. Half liquid change was performed once every 2 days. Suspended cells and loose wall attached cells were collected on the seventh day, and were […], and the volume of a culture medium was 100 μL.
Cell transfection: lipid nanoparticles coated with luciferase mRNA were added into a 96-well all-white ELISA plate laid with primary cells. The adding volume of the mRNA lipid nanoparticles in each well was controlled to be 10 μL. Then, the materials were put into a 37° C. incubator containing 5% CO2 for 16 h.
Transfection efficiency detection: 20 μL of a substrate ONE-Glo™ Luciferase was added into each well of a 96-well all-white ELISA plate. After 1 min, detection was performed by a multifunctional or multimode microplate reader.

Consider 58 compounds from patent publication US12679801B2, “Amino lipid and preparation method and application thereof” (Shenzhen MagicRNA Biotechnology Co., Ltd., priority 2022, dated 2026).

For `CCCCCCCCCC(CCCCCCC)C(=O)OCC(CCCCCC)OC(=O)C(C)CCN(C)C` (stereo not shown) [E3C79A10], the Luciferase luminescence intensity turned out to be 7.4E+ 04.

With `CCCCCCCCCC(CCCCCCC)C(=O)OCC(CCCCCC)OC(=O)CCCCN(C)C` (stereo not shown) [E3C79A11], the Luciferase luminescence intensity is recorded as 9.0E+ 04.

Regarding `CCCCCCCCCC(CCCCCCC)C(=O)OCC(CCCCCC)OC(=O)CCCCCN(C)C` (stereo not shown) [E3C79A12], the Luciferase luminescence intensity is given as 6.7E+ 04.

`CCCCCCCCCCCCCC(C)C(=O)OCC(CCCCCCC)OC(=O)CCCCN(C)C` (stereo not shown) [E4C72A11]: the Luciferase luminescence intensity worked out at 5.8E+ 04.

`CCCCCCCCCCCCCCC(C)C(=O)OCC(CCCCCCC)OC(=O)CCCN(C)C` (stereo not shown) [E4C74A9] returned a Luciferase luminescence intensity of 6.9E+ 04.

`CCCCCCCCCCCCCCC(C)C(=O)OCC(CCCCCCC)OC(=O)C(C)CCN(C)C` (stereo not shown) [E4C74A10] yielded a Luciferase luminescence intensity of 4.7E+ 04.

For `CCCCCCCCCCCCCCC(C)C(=O)OCC(CCCCCCC)OC(=O)CCCCN(C)C` (stereo not shown) [E4C74A11], the Luciferase luminescence intensity is listed as 6.0E+ 04.

Regarding `CCCCCCCCCC(CCCCCCC)C(=O)OCC(CCCCCCC)OC(=O)CCCN(C)C` (stereo not shown) [E4C79A9], the Luciferase luminescence intensity was 2.2E+ 04.

For the compound `CCCCCCCCCC(CCCCCCC)C(=O)OCC(CCCCCCC)OC(=O)C(C)CCN(C)C` (stereo not shown) [E4C79A10], the Luciferase luminescence intensity was 1.3E+ 04.

`CCCCCCCCCC(CCCCCCC)C(=O)OCC(CCCCCCC)OC(=O)CCCCN(C)C` (stereo not shown) [E4C79A11] gave a Luciferase luminescence intensity of 3.4E+ 04.

`CCCCCCCCCC(CCCCCCC)C(=O)OCC(CCCCCCC)OC(=O)CCCCCN(C)C` (stereo not shown) [E4C79A12] had a Luciferase luminescence intensity of 2.5E+ 04.

Take `CCCCCCCCCCCCCCCCCC(=O)OCC(CCCCCCCC)OC(=O)CCCCCN(C)C` (stereo not shown) [E5C13A12]: the Luciferase luminescence intensity was 1.1E+ 04.

Compound `CCCCCCCCC(COC(=O)C(CCCCCC)CCCCCCCC)OC(=O)CCCCN(C)C` (stereo not shown) [E5C71A11] yielded a Luciferase luminescence intensity of 4.6E+ 04.

`CCCCCCCCCCCCCCC(C)C(=O)OCC(CCCCCCCC)OC(=O)C(C)CCN(C)C` (stereo not shown) [E5C74A10] yielded a Luciferase luminescence intensity of 2.9E+ 04.

`CCCCCCCCCCCCCCC(C)C(=O)OCC(CCCCCCCC)OC(=O)CCCCN(C)C` (stereo not shown) [E5C74A11] came in with a Luciferase luminescence intensity of 7.7E+ 03.

For `CCCCCCCCCC(CCCCCCC)C(=O)OCC(CCCCCCCC)OC(=O)CCCCN(C)C` (stereo not shown) [E5C79A11], the Luciferase luminescence intensity stood at 3.6E+ 04.

The compound `CCCCCCCC/C=C/CCCCCCCC(=O)OCC(CCCCCCCC)OC(=O)C1CCN(C)CC1` (stereo not shown) [E5C82A23, 1-(Octadec-9-Enoyloxy) Decan-2-Yl 1-Methylpiperidine-4-Carboxylate] came in with a Luciferase luminescence intensity of 1.4E+ 04.

The compound `CCCCCCCCCC(COC(=O)C(CCCCCC)CCCCCCCC)OC(=O)CCCCN(C)C` (stereo not shown) [E6C71A11] gave a Luciferase luminescence intensity of 3.4E+ 04.

The compound `CCCCCCCCCCCCCC(C)C(=O)OCC(CCCCCCCCC)OC(=O)CCCCN(C)C` (stereo not shown) [E6C72A11] yielded a Luciferase luminescence intensity of 5.0E+ 04.

`CCCCCCCCCCCCCCC(C)C(=O)OCC(CCCCCCCCC)OC(=O)C(C)CCN(C)C` (stereo not shown) [E6C74A10] showed a Luciferase luminescence intensity of 1.1E+ 04.

`CCCCCCCCCCCCCCC(C)C(=O)OCC(CCCCCCCCC)OC(=O)CCCCN(C)C` (stereo not shown) [E6C74A11] displayed a Luciferase luminescence intensity of 4.5E+ 04.

`CCCCCCCCCC(COC(=O)C(CCCCCCC)CCCCCCCCC)OC(=O)C(C)CCN(C)C` (stereo not shown) [E6C79A10]: the Luciferase luminescence intensity is on record as 4.6E+ 04.

As for `CCCCCCCCCC(COC(=O)C(CCCCCCC)CCCCCCCCC)OC(=O)CCCCN(C)C` (stereo not shown) [E6C79A11], the Luciferase luminescence intensity worked out at 5.4E+ 04.

For the compound `CCCCCCCCCC(COC(=O)C(CCCCCCC)CCCCCCCCC)OC(=O)CCCCCN(C)C` (stereo not shown) [E6C79A12], the Luciferase luminescence intensity amounted to 2.5E+ 04.

On to `CCCCCCCCCCC(COC(=O)C(CCCCCC)CCCCCCCC)OC(=O)C(C)CCN(C)C` (stereo not shown) [E7C71A10], for which the Luciferase luminescence intensity turned out to be 8.3E+ 04.

`CCCCCCCCCCC(COC(=O)C(CCCCCC)CCCCCCCC)OC(=O)CCCCN(C)C` (stereo not shown) [E7C71A11] showed a Luciferase luminescence intensity of 4.4E+ 04.

Take `CCCCCCCCCCCCCCC(C)C(=O)OCC(CCCCCCCCCC)OC(=O)CCCN(C)C` (stereo not shown) [E7C74A9]: the Luciferase luminescence intensity was found to be 4.8E+ 04.

With `CCCCCCCCCCCCCCC(C)C(=O)OCC(CCCCCCCCCC)OC(=O)C(C)CCN(C)C` (stereo not shown) [E7C74A10], the Luciferase luminescence intensity is recorded as 3.7E+ 04.

The compound `CCCCCCCCCCCCCCC(C)C(=O)OCC(CCCCCCCCCC)OC(=O)CCCCN(C)C` (stereo not shown) [E7C74A11] yielded a Luciferase luminescence intensity of 3.2E+ 04.

`CCCCCCCCCCC(COC(=O)C(CCCCCCC)CCCCCCCCC)OC(=O)CCCN(C)C` (stereo not shown) [E7C79A9] yielded a Luciferase luminescence intensity of 5.6E+ 04.

Compound `CCCCCCCCCCC(COC(=O)C(CCCCCCC)CCCCCCCCC)OC(=O)C(C)CCN(C)C` (stereo not shown) [E7C79A10] displayed a Luciferase luminescence intensity of 3.6E+ 04.

For the compound `CCCCCCCCCCC(COC(=O)C(CCCCCCC)CCCCCCCCC)OC(=O)CCCCN(C)C` (stereo not shown) [E7C79A11], the Luciferase luminescence intensity came to 4.2E+ 04.

`CCCCCCCCCCC(COC(=O)C(CCCCCCC)CCCCCCCCC)OC(=O)CCCCCN(C)C` (stereo not shown) [E7C79A12]: the Luciferase luminescence intensity is 3.5E+ 04.

With `CCCCCCCCCCCC(COC(=O)C(CCCCCC)CCCCCCCC)OC(=O)CCCN(C)C` (stereo not shown) [E8C71A9], the Luciferase luminescence intensity is recorded as 8.8E+ 04.

In the case of `CCCCCCCCCCCC(COC(=O)C(CCCCCC)CCCCCCCC)OC(=O)CCCCN(C)C` (stereo not shown) [E8C71A11], the Luciferase luminescence intensity turned out to be 5.4E+ 04.

With `CCCCCCCCCCCC(COC(=O)C(CCCCCC)CCCCCCCC)OC(=O)C1CCN(C)CC1` (stereo not shown) [E8C71A23], the Luciferase luminescence intensity is listed as 1.5E+ 04.

In the case of `CCCCCCCCCCCCCC(C)C(=O)OCC(CCCCCCCCCCC)OC(=O)CCCN(C)C` (stereo not shown) [E8C72A9], the Luciferase luminescence intensity is recorded as 6.1E+ 04.

In turn, `CCCCCCCCCCCCCC(C)C(=O)OCC(CCCCCCCCCCC)OC(=O)CCCCN(C)C` (stereo not shown) [E8C72A11] returned a Luciferase luminescence intensity of 7.3E+ 04.

In turn, `CCCCCCCCCCCCCCC(C)C(=O)OCC(CCCCCCCCCCC)OC(=O)CCCN(C)C` (stereo not shown) [E8C74A9] displayed a Luciferase luminescence intensity of 8.5E+ 04.

For the compound `CCCCCCCCCCCCCCC(C)C(=O)OCC(CCCCCCCCCCC)OC(=O)CCCCN(C)C` (stereo not shown) [E8C74A11], the Luciferase luminescence intensity stood at 4.0E+ 04.

`CCCCCCCCCCCCCCC(C)C(=O)OCC(CCCCCCCCCCC)OC(=O)C1CCN(C)CC1` (stereo not shown) [E8C74A23] had a Luciferase luminescence intensity of 1.3E+ 04.

Compound `CCCCCCCCCCCC(COC(=O)C(CCCCCCC)CCCCCCCCC)OC(=O)CCCN(C)C` (stereo not shown) [E8C79A9] gave a Luciferase luminescence intensity of 3.6E+ 04.

As to `CCCCCCCCCCCCC(COC(=O)C(CCCC)CCCCCC)OC(=O)C(C)CCN(C)C` (stereo not shown) [E9C56A10], the Luciferase luminescence intensity amounted to 8.8E+ 04.

As for `CCCCCCCCCCCCC(COC(=O)C(CCCCC)CCCCC)OC(=O)C(C)CCN(C)C` (stereo not shown) [E9C57A10], the Luciferase luminescence intensity is 3.2E+ 04.

In turn, `CCCCCCCCCCCCC(COC(=O)C(C)(C)CCCCCCCC)OC(=O)CCCCN(C)C` (stereo not shown) [E9C58A11] displayed a Luciferase luminescence intensity of 3.5E+ 04.

Compound `CCCCCCCCCCCCC(COC(=O)C(CC)CCCCCCCCC)OC(=O)C1CCN(C)CC1` (stereo not shown) [E9C60A23] registered a Luciferase luminescence intensity of 1.8E+ 04.

`CCCCCCCCCCCCC(COC(=O)C(CCC)CCCCCCCC)OC(=O)C(C)CCN(C)C` (stereo not shown) [E9C62A10]: the Luciferase luminescence intensity was 4.3E+ 04.

`CCCCCCCCCCCCC(COC(=O)CCCCCCCCCC(C)CC)OC(=O)C(C)CCN(C)C` (stereo not shown) [E9C63A10] came in with a Luciferase luminescence intensity of 5.6E+ 04.

As to `CCCCCCCCCCCCC(COC(=O)C(CCCCCC)CCCCCC)OC(=O)CCCN(C)C` (stereo not shown) [E9C64A9], the Luciferase luminescence intensity was 8.9E+ 04.

With `CCCCCCCCCCCC(COC(=O)C(CCCCCC)CCCCCC)OC(=O)C(C)CCN(C)C` (stereo not shown) [E9C64A10], the Luciferase luminescence intensity amounted to 6.1E+ 04.

Regarding `CCCCCCCCCCCCC(COC(=O)C(C)(C)CCCCCCCCCC)OC(=O)CCCN(C)C` (stereo not shown) [E9C66A9], the Luciferase luminescence intensity is on record as 2.3E+ 04.

Take `CCCCCCCCCCCCC(COC(=O)CCCCCCCCCCCC(C)C)OC(=O)C(C)CCN(C)C` (stereo not shown) [E9C67A10]: the Luciferase luminescence intensity worked out at 7.8E+ 04.

The compound `CCCCCCCCCCCCCCC(C)C(=O)OCC(CCCCCCCCCCCCC)OC(=O)CCCN(C)C` (stereo not shown) [E10C74A9] displayed a Luciferase luminescence intensity of 1.3E+ 04.

As for `CCCCCCCCCCCCCCC(C)C(=O)OCC(CCCCCCCCCCCCC)OC(=O)C1CCN(C)CC1` (stereo not shown) [E10C74A23], the Luciferase luminescence intensity was determined as 1.0E+ 04.

Consider `CCCCCCCCCCCCCC(COC(=O)C(CCCCCCC)CCCCCCCCC)OC(=O)CCCN(C)C` (stereo not shown) [E10C79A9], for which the Luciferase luminescence intensity came to 1.3E+ 04.

Regarding `CCCCCCCCCCCCCCC(COC(=O)CCCCCCCCCCC)OC(=O)CCCN(C)C` (stereo not shown) [E11C7A9, 2-((4-(Dimethylamino)Butanoyl)Oxy)Hexadecyl Dodecanoate], the Luciferase luminescence intensity is recorded as 1.5E+ 04.

Turning to `CCCCCCCCCCCCCCC(COC(=O)C(CCCCC)CCCCC)OC(=O)CCCCN(C)C` (stereo not shown) [E11C57A11], the Luciferase luminescence intensity came out at 6.4E+ 04.

The compound `CCCCCCCCCCCCCCC(COC(=O)C(C)(C)CCCCCCCC)OC(=O)CCCCN(C)C` (stereo not shown) [E11C58A11] gave a Luciferase luminescence intensity of 2.3E+ 04.
